≈ marks a conversion by molar mass, not a printed value.

In general, EC50 refers to the concentration giving half of the maximal effect. What is called half-life is the time in which the quantity being followed falls by half. The low end stands for fast loss, the high end for slow loss. As a reminder, the AUC(0-t) is the area under the concentration-time curve up to a stated or last time point. A word on the Cmax: it is the peak of the concentration-time curve. What is called bioavailability is the share of a dose that reaches the circulation, judged against a reference dose that is usually intravenous. A high value points to much systemic uptake. What is called Tmax is the time from dosing to the highest level. One may read the solubility as how much of the substance goes into solution per volume. A low value points to little dissolved substance. For orientation: AUC(0-inf) means total exposure, with the tail of the curve extrapolated. By clearance is commonly meant the volume of plasma or blood freed of the substance per unit of time. Low readings indicate inefficient removal, high ones efficient removal.

Data set [1] can be described thus: Toxicity in C57BL/6J mouse assessed as induction of catalepsy at 3 to 10 mg/kg, po measured at 30 to 60 mins. Type of data set: organism-based. The settings on record: in vivo, dose lower 3 mg/kg, time lower 30 min, dose upper 10 mg/kg, time upper 60 min.
The target in data set [2] is T1, Trace amine-associated receptor 1 (Homo sapiens, UniProt Q96RJ0).
T1 sequence (Q96RJ0 whole entry): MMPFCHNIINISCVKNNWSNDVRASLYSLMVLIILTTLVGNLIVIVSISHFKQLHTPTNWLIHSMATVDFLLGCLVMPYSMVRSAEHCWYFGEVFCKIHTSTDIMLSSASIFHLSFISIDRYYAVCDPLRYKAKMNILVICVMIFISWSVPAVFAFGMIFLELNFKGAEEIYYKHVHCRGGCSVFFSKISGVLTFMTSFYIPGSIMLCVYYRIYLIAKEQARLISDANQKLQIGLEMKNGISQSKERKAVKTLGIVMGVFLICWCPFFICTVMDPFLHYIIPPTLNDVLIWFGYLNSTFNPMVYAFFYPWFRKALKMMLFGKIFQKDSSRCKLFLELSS
As to the kind of experiment: Agonist activity at Gq-mediated TAAR1 activation (unknown origin) expressed in HEK293 cells pretreated with coelenterazine for 30 mins followed by compound addition by BRET assay. The format is functional, cell-based.

The target in data set [3] is T1, Trace amine-associated receptor 1. Kind of data set: Agonist activity at Gs-mediated TAAR1 activation (unknown origin) expressed in HEK293 cells pretreated with coelenterazine for 30 mins followed by compound addition by BRET assay. Type of data set: functional, cell-based. Background: Bioluminescence resonance energy transfer reports proximity on the nanometre scale.

Data set [4] in a line: Half-life in Sprague-Dawley rat at 10 mg/kg, po measured upto 8 hrs by LC-MS/MS analysis. Type of data set: ADME, organism-based. The settings on record: in vivo.
Data set [5] in a line: AUC(0 to t) in Sprague-Dawley rat at 10 mg/kg, po measured upto 8 hrs by LC-MS/MS analysis. The format is ADME, organism-based. The settings on record: in vivo.
Data set [6] is described as follows: AUC(0 to t) in Sprague-Dawley rat at 2 mg/kg, iv measured upto 8 hrs by LC-MS/MS analysis. The format is ADME, organism-based. The following applies: in vivo.
Data set [7] in a line: Cmax in Sprague-Dawley rat at 10 mg/kg, po measured upto 8 hrs by LC-MS/MS analysis. Type of data set: ADME, organism-based. The settings on record: in vivo.
The nature of data set [8]: Acute toxicity in Kunming mouse assessed as abnormal behavior at 50 mg/kg, po administered every 2 days for 14 days. The format is organism-based. The settings on record: in vivo, 336 h, time 14 day.
Data set [9] in a line: Toxicity in Kunming mouse assessed as kidney damage at 50 mg/kg, po administered every 2 days for 14 days by H and E staining based assay. The format is organism-based. The following applies: in vivo, 336 h, time 14 day.
A short description of data set [10]: Toxicity in Kunming mouse assessed as spleen damage at 50 mg/kg, po administered every 2 days for 14 days by H and E staining based assay. Type of data set: organism-based. The following applies: in vivo, 336 h, time 14 day.
A short description of data set [11]: Oral bioavailability in Sprague-Dawley rat at 10 mg/kg measured upto 8 hrs by LC-MS/MS analysis. The following applies: in vivo. Type of data set: ADME, organism-based.
The nature of data set [12]: Acute toxicity in Kunming mouse assessed as change in body weight at 500 mg/kg, po measured after 7 days. Type of data set: organism-based. The following applies: in vivo, 168 h, time 7 day.
Data set [13] can be described thus: Acute toxicity in Kunming mouse assessed as change in body weight at 50 mg/kg, po administered every 2 days for 14 days. The format is organism-based. The settings on record: in vivo, 336 h, time 14 day.
The nature of data set [14]: Tmax in Sprague-Dawley rat at 2 mg/kg, iv measured upto 8 hrs by LC-MS/MS analysis. Type of data set: ADME, organism-based. The following applies: in vivo.
Data set [15] in a line: Tmax in Sprague-Dawley rat at 10 mg/kg, po measured upto 8 hrs by LC-MS/MS analysis. Type of data set: ADME, organism-based. The settings on record: in vivo.
Data set [16] can be described thus: Solubility of the compound at pH 2. The settings on record: buffer. Type of data set: physicochemical.
Data set [17] in a line: AUC(0 to infinity) in Sprague-Dawley rat at 10 mg/kg, po measured upto 8 hrs by LC-MS/MS analysis. The settings on record: in vivo. Type of data set: ADME, organism-based.
The nature of data set [18]: Toxicity in Kunming mouse assessed as liver damage at 50 mg/kg, po administered every 2 days for 14 days by H and E staining based assay. The following applies: in vivo, 336 h, time 14 day. Type of data set: organism-based.
The nature of data set [19]: Half-life in Sprague-Dawley rat at 2 mg/kg, iv measured upto 8 hrs by LC-MS/MS analysis. The following applies: in vivo. Type of data set: ADME, organism-based.
A short description of data set [20]: Cmax in Sprague-Dawley rat at 2 mg/kg, iv measured upto 8 hrs by LC-MS/MS analysis. Type of data set: ADME, organism-based. The following applies: in vivo.
Data set [21] in a line: Solubility of the compound at pH 7. The format is physicochemical. The settings on record: buffer.
Data set [22] can be described thus: AUC(0 to infinity) in Sprague-Dawley rat at 2 mg/kg, iv measured upto 8 hrs by LC-MS/MS analysis. The format is ADME, organism-based. The settings on record: in vivo.
Data set [23] can be described thus: Solubility of the compound at pH 7.4. Type of data set: physicochemical. The settings on record: buffer.
Data set [24] can be described thus: Toxicity in Kunming mouse assessed as lung damage at 50 mg/kg, po administered every 2 days for 14 days by H and E staining based assay. The format is organism-based. The settings on record: in vivo, 336 h, time 14 day.
A short description of data set [25]: Clearance in Sprague-Dawley rat at 2 mg/kg, iv measured upto 8 hrs by LC-MS/MS analysis. The format is ADME, organism-based. The settings on record: in vivo.
Data set [26] is described as follows: Toxicity in Kunming mouse assessed as heart damage at 50 mg/kg, po administered every 2 days for 14 days by H and E staining based assay. The format is organism-based. The following applies: in vivo, 336 h, time 14 day.
A short description of data set [27]: Toxicity in C57BL/6J mouse assessed as reduction in baseline locomotion at 3 mg/kg, po. Type of data set: organism-based. The following applies: in vivo.
Data set [28] is filed under the species Mus musculus. The settings on record: C57BL/6J, dose 0.3-3 mg/kg, route po, time 70.0 min.

Consider `CN(C)Cc1ccc(-c2cccc(Cl)c2)cc1`, for which the Activity entry in data set [1] is “Non-Toxic”.

In the case of `Nc1ccc(-c2ccccc2)cc1` [BIPHENYL-4-AMINE], the EC50 in data set [2] was 342 nM.

Take `NCCc1ccc(-c2cccc(F)c2)cc1`: the concentration giving a half-maximal response (EC50) in data set [3] was 1.17 nM.

Consider `NCCc1ccc(Br)cc1`, for which the figures for the 50% effective concentration (EC50) in data set [3] and in data set [2] were 9.85 nM and 66.5 nM, respectively.

As for `Nc1ccc(-c2cccc(F)c2)cc1`, the half-maximal effective concentration (EC50) in data set [2] came to 28.9 nM.

For the molecule `NCc1ccc(-c2ccccc2)cc1`, the EC50 in [3] came out at 301 nM.

Take `C[C@@H](N)C(=O)Nc1ccc(-c2ccco2)cc1.Cl`: the half-life is 2.31 h in data set [4] and 1.23 h in data set [19]. The AUC(0-t) at 8 h in data set [5] came out at 627 ng·h/mL; in [6], 323 ng·h/mL. The figures for the Cmax in [7] and in [20] were 154 ng/mL and 292 ng/mL, respectively. Moreover, the Activity entry in data set [8], in data set [9], in data set [10], in [12], in [13] and in [18] was “Non-Toxic” each time. The Activity entry in [24] and in data set [26] was “Non-Toxic” each time. Moreover, in [11], the bioavailability came to 39%. Besides, the time of peak concentration (Tmax) in [14] turned out to be 1.8 min; in data set [15] it was 1.5 h. Further, the solubility in data set [16] was 8640 µg/mL; in data set [21], 7500 µg/mL; in data set [23], 3110 µg/mL. Moreover, the values for the total exposure AUC(0-inf) in data set [17] and in data set [22] were 634 ng·h/mL and 327 ng·h/mL, respectively. Also, the clearance in [25] was found to be 104 mL/min/kg.

For the molecule `C[C@@H](N)C(=O)Nc1ccc(-c2ccco2)cc1`, the Activity entry in data set [27] and in [1] was “Non-Toxic” throughout. The figures for the solubility in [16], in [21] and in [23] were 390 µg/mL (≈ 1690 µM), 710 µg/mL (≈ 3080 µM) and 540 µg/mL (≈ 2350 µM), respectively.

For `CN(C)Cc1ccc(-c2ccccc2)cc1`, the 50% effective concentration (EC50) in data set [3] was found to be 9.46 nM. In addition, in data set [28], the inhibition entry is “Dose-Dependent Effect”. The Activity entry in [1] is on record as “Non-Toxic”.

The record behind these values is ChEMBL document CHEMBL5518212, “Structure-Based Design of Novel G-Protein-Coupled Receptor TAAR1 Agonists as Potential Antipsychotic Drug Candidates” (J Med Chem, 2024).
